Where two headings read alike, the source gives them in different places.
Key:
A375-NRAS^Q61K cells = assay: CTGlo Cell Viability Assay, A375-NRAS^Q61K (A375.11) cells, 96 hours; assay type: cell-based, human; settings: A375.11 (A375-NRAS^Q61K) cells
How it was run: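 Viability as CellTiter-Glo ATP luminescence after 96 h compound exposure at 37 °C; A375.11 (BRAF V600E/NRAS Q61K) cells at 250/well, top final concentration 10 μM in half-log steps. Signal was background-corrected and set relative to DMSO controls. A 4-parameter logistic fit gave GI50 (50% crossing) and Emax.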

BRAF V600E = target: T1, BRAF V600E (Homo sapiens, UniProt P15056+Q96SW2, V600E); assay: BRAF V600E HiBiT Degradation Assay; assay type: cell-based; settings: for Emax / HiBiT-Degradation A375.10 BRAF 2 hours Emax: residual protein remaining
T1 construct: knock-in of the HiBiT tag to the endogenous BRAF V600E locus; host or cells: A375.10 (A375 clonal line, CRISPR HiBiT knock-in at the endogenous BRAF V600E locus)
T1 sequence (P15056 whole entry V600E): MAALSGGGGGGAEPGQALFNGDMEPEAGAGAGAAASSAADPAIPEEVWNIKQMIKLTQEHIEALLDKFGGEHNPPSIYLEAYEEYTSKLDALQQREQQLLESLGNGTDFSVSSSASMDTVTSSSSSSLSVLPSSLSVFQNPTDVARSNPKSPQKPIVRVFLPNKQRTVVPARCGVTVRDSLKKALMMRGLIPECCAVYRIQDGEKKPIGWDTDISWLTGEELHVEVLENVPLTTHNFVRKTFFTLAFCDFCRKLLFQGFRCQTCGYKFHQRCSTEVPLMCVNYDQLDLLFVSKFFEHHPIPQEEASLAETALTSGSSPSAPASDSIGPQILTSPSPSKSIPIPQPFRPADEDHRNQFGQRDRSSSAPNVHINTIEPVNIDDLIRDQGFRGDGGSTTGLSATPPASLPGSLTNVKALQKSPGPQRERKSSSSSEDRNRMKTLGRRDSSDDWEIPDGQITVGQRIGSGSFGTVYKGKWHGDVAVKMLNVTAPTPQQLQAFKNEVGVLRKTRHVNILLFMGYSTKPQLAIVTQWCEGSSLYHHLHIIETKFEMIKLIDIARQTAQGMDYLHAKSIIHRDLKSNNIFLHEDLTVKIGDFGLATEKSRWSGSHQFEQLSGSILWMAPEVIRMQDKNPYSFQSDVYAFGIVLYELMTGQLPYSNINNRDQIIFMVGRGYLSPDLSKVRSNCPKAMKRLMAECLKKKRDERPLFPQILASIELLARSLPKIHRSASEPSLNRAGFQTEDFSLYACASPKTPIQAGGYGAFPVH
T1 sequence (Q96SW2 whole entry): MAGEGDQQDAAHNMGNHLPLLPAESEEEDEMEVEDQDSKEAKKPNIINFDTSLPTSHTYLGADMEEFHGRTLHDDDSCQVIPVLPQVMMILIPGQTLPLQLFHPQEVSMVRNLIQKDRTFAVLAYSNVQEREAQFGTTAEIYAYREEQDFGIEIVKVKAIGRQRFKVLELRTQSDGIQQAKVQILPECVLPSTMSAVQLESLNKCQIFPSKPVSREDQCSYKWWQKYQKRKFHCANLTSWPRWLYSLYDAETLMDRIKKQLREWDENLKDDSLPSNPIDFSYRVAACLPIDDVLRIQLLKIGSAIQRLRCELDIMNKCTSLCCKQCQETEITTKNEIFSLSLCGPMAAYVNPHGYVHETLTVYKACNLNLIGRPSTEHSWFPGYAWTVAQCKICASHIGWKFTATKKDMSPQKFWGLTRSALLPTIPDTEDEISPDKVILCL
T1 sequence (Q16531 whole entry partner): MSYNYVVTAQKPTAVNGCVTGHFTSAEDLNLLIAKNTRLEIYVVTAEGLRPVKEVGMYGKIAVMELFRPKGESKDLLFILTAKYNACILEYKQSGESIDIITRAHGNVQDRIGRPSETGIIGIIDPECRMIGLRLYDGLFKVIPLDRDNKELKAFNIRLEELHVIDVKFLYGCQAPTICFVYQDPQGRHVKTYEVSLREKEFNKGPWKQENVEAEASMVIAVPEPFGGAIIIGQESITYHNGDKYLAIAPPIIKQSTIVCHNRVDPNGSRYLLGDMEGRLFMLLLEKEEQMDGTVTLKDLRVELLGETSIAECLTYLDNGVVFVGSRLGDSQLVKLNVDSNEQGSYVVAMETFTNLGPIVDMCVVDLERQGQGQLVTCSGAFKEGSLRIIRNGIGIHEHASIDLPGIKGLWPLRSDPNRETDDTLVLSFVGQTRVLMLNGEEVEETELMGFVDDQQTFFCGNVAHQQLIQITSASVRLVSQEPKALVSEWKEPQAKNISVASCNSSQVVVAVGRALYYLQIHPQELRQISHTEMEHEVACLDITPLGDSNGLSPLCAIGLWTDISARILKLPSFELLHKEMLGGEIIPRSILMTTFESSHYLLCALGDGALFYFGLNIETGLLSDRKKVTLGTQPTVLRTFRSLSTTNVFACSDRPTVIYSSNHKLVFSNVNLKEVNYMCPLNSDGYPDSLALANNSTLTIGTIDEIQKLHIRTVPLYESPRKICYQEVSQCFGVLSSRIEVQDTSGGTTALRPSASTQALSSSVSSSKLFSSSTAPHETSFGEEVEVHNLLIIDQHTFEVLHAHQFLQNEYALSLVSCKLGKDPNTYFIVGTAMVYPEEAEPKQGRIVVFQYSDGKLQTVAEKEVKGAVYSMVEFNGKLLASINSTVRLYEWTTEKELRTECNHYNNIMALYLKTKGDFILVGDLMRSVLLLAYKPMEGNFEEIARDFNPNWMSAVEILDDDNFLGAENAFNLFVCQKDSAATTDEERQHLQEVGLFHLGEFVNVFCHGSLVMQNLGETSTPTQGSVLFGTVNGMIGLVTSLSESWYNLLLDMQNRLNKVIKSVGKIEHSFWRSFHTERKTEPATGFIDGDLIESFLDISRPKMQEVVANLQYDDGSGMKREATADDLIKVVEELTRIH
How it was run: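 Endogenous HiBiT knock-in on BRAF V600E in A375 cells (clone A375.10); 11-point half-log series, top 10 μM, 2, 6 or 24 h at 37° C. Lytic HiBiT luminescence, background-subtracted, normalized to DMSO; 4-parameter fit gives DC50, Emax (residual protein) and IP (inflection point).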

[1] = Homo sapiens, 96 h, lowest % viability achieved
[2] = A375.10 cells, BRAF V600E, 2 hours, inflection point, read-out: HiBiT-Degradation A375.10 BRAF 2 hours IP
[3] = A375.10 cells, BRAF V600E, 2 hours, read-out: HiBiT-Degradation A375.10 BRAF 2 hours DC50
[4] = A375.10 cells, BRAF V600E, 2 hours, read-out: HiBiT-Degradation A375.10 BRAF 2 hours Emax
[5] = A375.10 cells, BRAF V600E, 2 hours
[6] = read-out: HiBiT-Degradation A375.10 BRAF 2 hours Emax, A375.10 cells, BRAF V600E, 2 hours
[7] = read-out: HiBiT-Degradation A375.10 BRAF 2 hours DC50, A375.10 cells, BRAF V600E, 2 hours
[8] = read-out: HiBiT-Degradation A375.10 BRAF 2 hours IP, A375.10 cells, BRAF V600E, 2 hours, inflection point

GI50 (A375-NRAS^Q61K cells; Homo sapiens, 96 h) | DC50 (BRAF V600E; [2]) | DC50 (BRAF V600E; [3]) | Emax (BRAF V600E; [4]) | HiBiT-Degradation A375.10 BRAF 2 hours Emax (BRAF V600E; [5]) | GI50 (A375-NRAS^Q61K cells) | Emax (BRAF V600E; [6]) | DC50 (BRAF V600E; [7]) | DC50 (BRAF V600E; [8]) | SMILES | Emax (A375-NRAS^Q61K cells; [1]) | CTGlo A375.11 96 hours Emax (A375-NRAS^Q61K cells; lowest % viability achieved)
1000 to 10000 nM | < 1000 nM | < 1000 nM | 50 to 90% |  |  |  |  |  | CCN(C)S(=O)(=O)Nc1ccc(F)c(Oc2ccc3ncn(C4CC5(CCN(C6CC7(C6)CN(c6cc8c(cc6F)c(N6CCC(=O)NC6=O)nn8C)C7)CC5)C4)c(=O)c3c2)c1F (centres unmarked) [Compound 164, 3-[7-[2-[3-(2,4-dioxohexahydropyrimidin-1-yl)-5-fluoro-1-methyl-indazol-6-yl]-2-azaspiro[3.3]heptan-6-yl]-7-azaspiro[3.5]nonan-2-yl]-6-[3-[[ethyl(methyl)sulfamoyl]amino]-2,6-difluoro-phenoxy]-4-oxo-quinazoline] | 50 to 90% | 
> 10000 nM | < 1000 nM | < 1000 nM | 50 to 90% |  |  |  |  |  | CN(CCO)S(=O)(=O)Nc1ccc(F)c(Oc2ccc3ncn([C@H]4COC5(CCN([C@H]6C[C@@H](c7ccc(NC8CCC(=O)NC8=O)cc7F)C6)CC5)C4)c(=O)c3c2)c1C#N (stereo partly drawn) [Compound 168, (3R)-3-[6-[2-cyano-6-fluoro-3-[[2-hydroxyethyl(methyl)sulfamoyl]amino]phenoxy]-4-oxo-quinazolin-3-yl]-8-[3-[4-[(2,6-dioxo-3-piperidyl)amino]-2-fluoro-phenyl]cyclobutyl]-1-oxa-8-azaspiro[4.5]decane] | 50 to 90% | 
1000 to 10000 nM |  |  | 50 to 90% |  |  |  | < 1000 nM | < 1000 nM | CCN(C)S(=O)(=O)Nc1ccc(F)c(Oc2ccc3ncn([C@H]4COC5(CCN(C6CC7(C6)CN(c6cc8c(cc6F)c(N6CCC(=O)NC6=O)nn8C)C7)CC5)C4)c(=O)c3c2)c1F [Compound 186, (3R)-8-[2-[3-(2,4-dioxohexahydropyrimidin-1-yl)-5-fluoro-1-methyl-indazol-6-yl]-2-azaspiro[3.3]heptan-6-yl]-3-[6-[3-[[ethyl(methyl)sulfamoyl]amino]-2,6-difluoro-phenoxy]-4-oxo-quinazolin-3-yl]-1-oxa-8-azaspiro[4.5]decane] | > 90% | 
> 10000 nM | < 1000 nM | < 1000 nM | 50 to 90% |  |  |  |  |  | CCN(C)S(=O)(=O)Nc1ccc(F)c(Oc2ccc3ncn(C4CC5(CCN(C6CC7(C6)CN(c6ccc(NC8CCC(=O)NC8=O)cc6F)C7)CC5)C4)c(=O)c3c2)c1F (centres unmarked) [Compound 188, 3-[7-[2-[4-[(2,6-dioxo-3-piperidyl)amino]-2-fluoro-phenyl]-2-azaspiro[3.3]heptan-6-yl]-7-azaspiro[3.5]nonan-2-yl]-6-[3-[[ethyl(methyl)sulfamoyl]amino]-2,6-difluoro-phenoxy]-4-oxo-quinazoline] | 50 to 90% | 
> 10000 nM | < 1000 nM | < 1000 nM |  |  |  | 50 to 90% |  |  | CCN(C)S(=O)(=O)Nc1ccc(F)c(Oc2ccc3ncn([C@H]4COC5(CCC(N6CC[C@@H](c7ccc(NC8CCC(=O)NC8=O)cc7F)C(F)(F)C6)CC5)C4)c(=O)c3c2)c1C#N (stereo partly drawn) [Compound 189, 6-[2-cyano-3-[[ethyl(methyl)sulfamoyl]amino]-6-fluoro-phenoxy]-3-[(3R)-8-[(4S)-4-[4-[(2,6-dioxo-3-piperidyl)amino]-2-fluoro-phenyl]-3,3-difluoro-1-piperidyl]-1-oxaspiro[4.5]decan-3-yl]-4-oxo-quinazoline] | < 50% | 
1000 to 10000 nM |  |  | 50 to 90% |  |  |  | > 10000 nM | < 1000 nM | CCN(C)S(=O)(=O)Nc1ccc(F)c(Oc2ccc3ncn([C@H]4COC5(CCN(C6CC7(C6)CN(c6ccc(NC8CCC(=O)NC8=O)cc6F)C7)CC5)C4)c(=O)c3c2)c1F (stereo partly drawn) [Compound 193, (3R)-8-[2-[4-[(2,6-dioxo-3-piperidyl)amino]-2-fluoro-phenyl]-2-azaspiro[3.3]heptan-6-yl]-3-[6-[3-[[ethyl(methyl)sulfamoyl]amino]-2,6-difluoro-phenoxy]-4-oxo-quinazolin-3-yl]-1-oxa-8-azaspiro[4.5]decane] | 50 to 90% | 

Further lines, the molecule ahead of its results:

SMILES | GI50 (A375-NRAS^Q61K cells; Homo sapiens, 96 h) | DC50 (BRAF V600E; [2]) | DC50 (BRAF V600E; [3]) | Emax (BRAF V600E; [4]) | HiBiT-Degradation A375.10 BRAF 2 hours Emax (BRAF V600E; [5]) | GI50 (A375-NRAS^Q61K cells) | Emax (BRAF V600E; [6]) | DC50 (BRAF V600E; [7]) | DC50 (BRAF V600E; [8]) | Emax (A375-NRAS^Q61K cells; [1]) | CTGlo A375.11 96 hours Emax (A375-NRAS^Q61K cells; lowest % viability achieved)
CCN(C)S(=O)(=O)Nc1ccc(F)c(Oc2ccc3ncn(C4CC5(CCN(C6CCN(c7cc8c(cc7F)c(N7CCC(=O)NC7=O)nn8C)CC6)C5)C4)c(=O)c3c2)c1C#N (single isomer, unassigned) [Compound 307, 6-[2-cyano-3-[[ethyl(methyl)sulfamoyl]amino]-6-fluoro-phenoxy]-3-[6-[1-[3-(2,4-dioxohexahydropyrimidin-1-yl)-5-fluoro-1-methyl-indazol-6-yl]-4-piperidyl]-6-azaspiro[3.4]octan-2-yl]-4-oxo-quinazoline] | 1000 to 10000 nM | < 1000 nM | 1000 to 10000 nM | 50 to 90% |  |  |  |  |  | 50 to 90% | 
CN(CCO)S(=O)(=O)Nc1ccc(F)c(Oc2ccc3ncc(C4CC5(C4)CN(C4CCC(c6cc7c(cc6F)c(N6CCC(=O)NC6=O)nn7C)CC4)C5)nc3c2)c1C#N (single isomer, unassigned) [Compound 321, 7-[2-cyano-6-fluoro-3-[[2-hydroxyethyl(methyl)sulfamoyl]amino]phenoxy]-2-[2-[4-[3-(2,4-dioxohexahydropyrimidin-1-yl)-5-fluoro-1-methyl-indazol-6-yl]cyclohexyl]-2-azaspiro[3.3]heptan-6-yl]quinoxaline] | > 10000 nM | < 1000 nM | 1000 to 10000 nM |  | * (>=90%) |  |  |  |  | 50 to 90% | 
CN(CCO)S(=O)(=O)Nc1ccc(F)c(Oc2ccc3ncc(C4CC5(C4)CN(C4CCC(c6cc7c(cc6F)c(N6CCC(=O)NC6=O)nn7C)CC4)C5)nc3c2)c1C#N (single isomer, unassigned) [Compound 322, 7-[2-cyano-6-fluoro-3-[[2-hydroxyethyl(methyl)sulfamoyl]amino]phenoxy]-2-[2-[4-[3-(2,4-dioxohexahydropyrimidin-1-yl)-5-fluoro-1-methyl-indazol-6-yl]cyclohexyl]-2-azaspiro[3.3]heptan-6-yl]quinoxaline] |  | < 1000 nM | 1000 to 10000 nM |  | ** (<90% and >50%) | > 10000 nM |  |  |  |  | ** (<90% and >50%)
CN(CCO)S(=O)(=O)Nc1ccc(F)c(Oc2ccc3ncn([C@H]4COC5(CCN(C6CC7(C6)CN(c6cc8c(cc6F)c(N6CCC(=O)NC6=O)nn8C)C7)CC5)C4)c(=O)c3c2)c1C#N [Compound 130, (3R)-3-[6-[2-cyano-6-fluoro-3-[[2-hydroxyethyl(methyl)sulfamoyl]amino]phenoxy]-4-oxo-quinazolin-3-yl]-8-[2-[3-(2,4-dioxohexahydropyrimidin-1-yl)-5-fluoro-1-methyl-indazol-6-yl]-2-azaspiro[3.3]heptan-6-yl]-1-oxa-8-azaspiro[4.5]decane] | > 10000 nM | < 1000 nM | < 1000 nM | 50 to 90% |  |  |  |  |  | 50 to 90% | 
CCN(C)S(=O)(=O)Nc1ccc(F)c(Oc2ccc3ncc([C@@H]4COC5(CCN(C6CC7(C6)CN(c6cc8c(cc6F)c(N6CCC(=O)NC6=O)nn8C)C7)CC5)C4)nc3c2)c1C#N [Compound 161, (3R)-3-[7-[2-cyano-3-[[ethyl(methyl)sulfamoyl]amino]-6-fluoro-phenoxy]quinoxalin-2-yl]-8-[2-[3-(2,4-dioxohexahydropyrimidin-1-yl)-5-fluoro-1-methyl-indazol-6-yl]-2-azaspiro[3.3]heptan-6-yl]-1-oxa-8-azaspiro[4.5]decane] | 1000 to 10000 nM | < 1000 nM | > 10000 nM |  |  |  | 50 to 90% |  |  | 50 to 90% | 
CN(CCO)S(=O)(=O)Nc1ccc(F)c(Oc2ccc3ncn([C@H]4COC5(CCN([C@H]6C[C@@H](c7cc8c(cc7F)c(N7CCC(=O)NC7=O)nn8C)C6)CC5)C4)c(=O)c3c2)c1C#N [Compound 165, (3R)-3-[6-[2-cyano-6-fluoro-3-[[2-hydroxyethyl(methyl)sulfamoyl]amino]phenoxy]-4-oxo-quinazolin-3-yl]-8-[3-[3-(2,4-dioxohexahydropyrimidin-1-yl)-5-fluoro-1-methyl-indazol-6-yl]cyclobutyl]-1-oxa-8-azaspiro[4.5]decane] | > 10000 nM | < 1000 nM | < 1000 nM | 50 to 90% |  |  |  |  |  | 50 to 90% | 
CN(CCO)S(=O)(=O)Nc1ccc(F)c(Oc2ccc3ncc(C4CC5(CCN(C6CC7(C6)CN(c6cc8c(cc6F)c(N6CCC(=O)NC6=O)nn8C)C7)CC5)C4)nc3c2)c1C#N (centres unmarked) [Compound 187, 7-[2-cyano-6-fluoro-3-[[2-hydroxyethyl(methyl)sulfamoyl]amino]phenoxy]-2-[7-[2-[3-(2,4-dioxohexahydropyrimidin-1-yl)-5-fluoro-1-methyl-indazol-6-yl]-2-azaspiro[3.3]heptan-6-yl]-7-azaspiro[3.5]nonan-2-yl]quinoxaline] | > 10000 nM |  |  | 50 to 90% |  |  |  | 1000 to 10000 nM | < 1000 nM | 50 to 90% | 

Source: patent US20260297060A1, “COMPOUNDS FOR THE DEGRADATION OF MUTANT BRAF” (C4 THERAPEUTICS, INC., priority 2023, published 2026)
